{"source": "patent US20240279684A1", "about": "“CYTOSOLIC DELIVERY OF GENOME EDITING TOOLS” (SAPREME TECHNOLOGIES B.V., priority 2021, published 2024)", "tested_on": "GFP-expressing Neuro-2A-GFP-cells", "experiment": "GFP-knockout via Cas9/gRNA(GFP) nanoplexes, FITC-H flow cytometry", "type": "cell-based, murine", "settings": "for cells not considered fluorescent: GE1741-co-application", "protocol": "FIG. 6A-E. GFP-Knockout of GFP-expressing Neuro-2A-GFP-cells via PDD (Cas9-DNA, gRNA (GFP)-DNA)-nanoplexes±saponin administration (co-transfection). GFP expressing Neuro-2A-cells were transfected via co-transfection of Cas9-DNA-plasmid and gRNA (GFP)-DNA-plasmid in a ratio of 4:0.5:0:5, with 500 ng of each DNA/well and 4.000 ng poly-lysine K16 peptide perwell. […] With saponin-Co-administration, the FITC-H was decreased by 10% (FIG. 6D) and the amount of cells not considered “fluorescent” compared to negative control, was increased by 7.5% (FIG. 6E).; n 3. FIG. 6A: FACS results with negative control; FIG. 6B: FACS results with PDD(Cas9-DNA, gRNA(GFP)-DNA), 4:1; FIG. 6C: FACS results of PDD(Cas9-DNA, gRNA(GFP)-DNA), 4:1+GE1741; FIG. 6D: values for the median FITC-H for the test samples of FIG. 6A-C and the control Lipofectamine3000DD(Cas9-DNA); FIG. 6E: amount of non-fluorescent cells in the test samples of FIGS. 6A-C and the control Lipofectamine3000DD(Cas9-DNA).\nFIG. 7A-E. GFP-Knockout of GFP-expressing Neuro-2A-cells via PD (Cas9-gRNA (GFP)-DNA)-nanoplexes±saponin administration (All-in-one-transfection). GFP expressing Neuro-2A-cells were transfected via “All-in-one”-transfection of a Cas9-gRNA (GFP)-DNA-plasmid in a ratio of 4:1, 500 ng of each DNA/well. […] FIG. 7A: FACS results with negative control; FIG. 7B: FACS results with PD(Cas9-gRNA(GFP)-DNA, 4:1; FIG. 7C: FACS results of PD(Cas9-gRNA(GFP)-DNA, 4:1+GE1741; FIG. 7D: values for the median FITC-H for the test samples of FIG. 7A-C and for PD(Cas9-gRNA(GFP)-DNA, 8:1 and PD(Cas9-gRNA(GFP)-DNA, 8:1+GE1741; FIG. 7E: amount of non-fluorescent cells in the test samples of FIG. 7A-C and for PD(Cas9-gRNA(GFP)-DNA, 8:1 and PD(Cas9-gRNA(GFP)-DNA, 8:1+GE1741.\nAfter the successful delivery of Cas9-DNA with GFP-driven fluorescence has been established, the inventors next tested the functionality of Cas9-transfections. GFP-expressing Neuro-2A-GFP-cells were therefore acquired. The aim of the test was to show and visualize the knock-out of the GFP-gene with a CRISPR-Cas9-gene knock-out. Therefore, Cas9-DNA (i.e. a plasmid DNA) was, either co-transfected with a gRNA-DNA-plasmid (PDD), or delivered in one plasmid DNA (“All-In-One-Plasmid”) coding for Cas9 and gRNA (PD) and expressing both Cas9 and guide RNA (FIG. 8, FIG. 9). The effect of GE1741-co-application during transfection of the cells was investigated via decrease of fluorescence intensity (FITC-H median & separation of the dot plot in FITC-H & FSC related quarters). […] To improve gene knock-out efficiency, a number of different gRNA-sequences was tested, in order to select the most efficient target sequence for the gRNA. The initially and further applied gRNA-sequences were obtained through a database with efficiency information. For selection of an optimal gRNA sequence, the GFP-gene sequence of the transfected cell line has to be known as many GFP-sequences are available. Further, the gene knock-out requires a sensitive assay, by which minimal changes can be detected. Within promotor-driven highly fluorescing cells, single gene knock-out possibly could not be identified."}
{"smiles": "CC(=O)OC1C(C)OC(OC2C(C)OC(OC(=O)C34CCC(C)(C)CC3C3=CCC5C6(C)CCC(OC7OC(C(=O)O)C(O)C(OC8OCC(O)C(O)C8O)C7OC7OC(CO)C(O)C(O)C7O)C(C)(C=O)C6CCC5(C)C3(C)CC4O)C(OC3OC(C)C(OC4OCC(O)C(OC5OCC(O)C(O)C5O)C4O)C(O)C3O)C2O)C(O)C1OC(C)=O", "note": "(stereo not shown) [GE1741]", "values": [{"measurement": "cells successfully transfected with Cas9-DNA", "value": 30, "unit": "%"}, {"measurement": "cells not considered fluorescent", "setting": "All-In-One-Plasmid (PD)", "value": 11, "unit": "%"}, {"measurement": "FITC-H median change (in words)", "setting": "All-in-one PD (Cas9-gRNA(GFP)-DNA)", "value": "No FITC-H could be observed"}, {"measurement": "amount of cells considered fluorescent, elevated by", "setting": "All-in-one PD (Cas9-gRNA(GFP)-DNA), PD mass ratio 8:1", "value": 11, "unit": "%"}, {"measurement": "decrease of FITC-H median", "setting": "co-transfection PDD (Cas9-DNA, gRNA(GFP)-DNA) 4:0.5:0.5, with saponin", "value": 10, "unit": "%"}, {"measurement": "increase of cells not considered fluorescent compared to negative control", "setting": "co-transfection PDD (Cas9-DNA, gRNA(GFP)-DNA), with saponin", "value": 7.5, "unit": "%"}, {"measurement": "cells not considered fluorescent", "setting": "co-transfection with gRNA-DNA-plasmid (PDD)", "value": 10, "unit": "%"}]}
